Legend:
Test in all cases: combination Emax (second highest fraction inhibited in the dose matrix, 72 h); higher = more inhibition; extreme values may be limits of the assay
[1] = test system: CADO-ES1 (Ewing's Sarcoma)
In short: (§1)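 Cell lines grown in DMEM/F12 or RPMI with 10% FBS were plated in 1536-well plates and held 24 hours at 37°C, 5% CO2 before 72 hours of exposure to two-drug dose matrices, with DMSO typically at 0.2%. CellTiter-Glo 2.0 luminescence gave viability, which was converted to inhibition. Vehicle wells were set to 0 and blank wells to 1. Combination Emax is the second-highest inhibition in the matrix, and Bliss excess is the observed combination effect minus the expected EA + EB − EA·EB, where EA and EB are the single-agent effects.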

COLO-679 (Melanoma) = test system: COLO-679 (Melanoma)
In short: as §1

[2] = test system: DU-145 (Prostate Carcinoma)
In short: as §1

[3] = test system: EFO-21 (Ovarian Carcinoma)
In short: as §1

[4] = test system: HCC2998 (Colorectal Carcinoma)
In short: as §1

Hey (Ovarian Carcinoma) = test system: Hey (Ovarian Carcinoma)
In short: as §1

[5] = test system: KGN (Other Solid Carcinomas)
In short: as §1

[6] = test system: KMRC-1 (Kidney Carcinoma)
In short: as §1

[7] = test system: LC-1-sq (Squamous Cell Lung Carcinoma)
In short: as §1

[8] = test system: ME-180 (Cervical Carcinoma)
In short: as §1

[9] = test system: ML-2 (Acute Myeloid Leukemia)
In short: as §1

[10] = test system: MOG-G-UVW (Low Grade Glioma)
In short: as §1

[11] = test system: MOLT-4 (T-Lymphoblastic Leukemia)
In short: as §1

[12] = test system: MV-4-11 (Acute Myeloid Leukemia)
In short: as §1

[13] = test system: Mo-T (Other Blood Carcinomas)
In short: as §1

[14] = test system: NCI-H1838 (Lung Adenocarcinoma)
In short: as §1

[15] = test system: NCI-H522 (Lung Adenocarcinoma)
In short: as §1

SK-N-AS (Neuroblastoma) = test system: SK-N-AS (Neuroblastoma)
In short: as §1

[16] = test system: SKN (Other Solid Carcinomas)
In short: as §1

[17] = test system: SW982 (Other Solid Carcinomas)
In short: as §1

Cn1cnc2c(F)c(Nc3ccc(Br)cc3Cl)c(C(=O)NOCCO)cc21 [Selumetinib] + C=CCn1c(=O)c2cnc(Nc3ccc(N4CCN(C)CC4)cc3)nc2n1-c1cccc(C(C)(C)O)n1 [AZD1775] (first compound max 10 µM, partner max 1 µM)
combination Emax [1]: 0.294
combination Emax (COLO-679 (Melanoma)): 0.823
combination Emax [2]: 0.239
combination Emax [3]: 0.315
combination Emax [4]: 0.806
combination Emax (Hey (Ovarian Carcinoma)): 0.719
combination Emax [5]: 0.695
combination Emax [6]: 0.203
combination Emax [7]: 0.696
combination Emax [8]: 0.478
combination Emax [9]: 0.994
combination Emax [10]: 0.72
combination Emax [11]: 1
combination Emax [12]: 0.915
combination Emax [13]: 0.482
combination Emax [14]: 0.468
combination Emax [15]: 0.177
combination Emax (SK-N-AS (Neuroblastoma)): 0.817
combination Emax [16]: 0.353
combination Emax [17]: 0.633

Cn1cnc2c(F)c(Nc3ccc(Br)cc3Cl)c(C(=O)NOCCO)cc21 [Selumetinib] + CC(C)n1c(=O)n(C)c2cnc3cc(F)c(-c4ccc(OCCCN5CCCCC5)nc4)cc3c21 [AZD1390] (first compound max 10 µM, 7x7, partner max 0.3 µM)
combination Emax [1]: 0.175
combination Emax (COLO-679 (Melanoma)): 0.796
combination Emax [2]: 0.16
combination Emax [3]: 0.205
combination Emax [4]: 0.719
combination Emax (Hey (Ovarian Carcinoma)): 0.549
combination Emax [5]: 0.341
combination Emax [6]: 0.165
combination Emax [7]: 0.184
combination Emax [8]: 0.209
combination Emax [9]: 0.78
combination Emax [10]: 0.346
combination Emax [11]: 0.348
combination Emax [12]: 0.711
combination Emax [13]: 0.246
combination Emax [14]: 0.237
combination Emax [15]: 0.0811
combination Emax (SK-N-AS (Neuroblastoma)): 0.422
combination Emax [16]: 0.113
combination Emax [17]: 0.266

Cn1cnc2c(F)c(Nc3ccc(Br)cc3Cl)c(C(=O)NOCCO)cc21 [Selumetinib] + CCN(CCO)CCCOc1ccc2c(Nc3cc(CC(=O)Nc4cccc(F)c4)[nH]n3)ncnc2c1 [AZD2811] (first compound max 10 µM, 7x7, partner max 1 µM)
combination Emax [1]: 0.276
combination Emax (COLO-679 (Melanoma)): 0.815
combination Emax [2]: 0.203
combination Emax [3]: 0.212
combination Emax [4]: 0.792
combination Emax (Hey (Ovarian Carcinoma)): 0.611
combination Emax [5]: 0.514
combination Emax [6]: 0.233
combination Emax [7]: 0.303
combination Emax [8]: 0.245
combination Emax [9]: 1
combination Emax [10]: 0.642
combination Emax [11]: 0.992
combination Emax [12]: 0.974
combination Emax [13]: 0.238
combination Emax [14]: 0.322
combination Emax [15]: 0.171
combination Emax (SK-N-AS (Neuroblastoma)): 0.496
combination Emax [16]: 0.255
combination Emax [17]: 0.594

— the supplement of paper PMC11061612
